Values quoted from earlier work, collected in patent US20250360135A1, “COMPOSITIONS COMPRISING DISODIUM 5,10-METHYLENE-(6R)-TETRAHYDROFOLATE” (MERCK PATENT GMBH, priority 2022, published 2025).

purity after 7 hours (after 7 hours): 84%
normalized purity after 24 hours (after 24 hours): 45%
degradation rate (loss of purity per hour) (re-constituted lyophilizate, linear regression of stability profile): 2.2 % purity per hour
Compound: Nc1nc2c(c(=O)[nH]1)N1CN(c3ccc(C(=O)N[C@@H](CCC(=O)O)C(=O)O)cc3)C[C@H]1CN2 [5,10-methylene-(6R,S)-tetrahydrofolic acid]
